Measurements published in ChEMBL document CHEMBL3046825, “Molecular Mechanism for Selective Toxicity of Nicotinoids and Neonicotinoids” (J Pestic Sci, 1995).
Active and inactive are the calls of the source. No cut-off for these calls is given here.

How the values were obtained:
[1] = biological target: Acetylcholine receptor subunit alpha (Torpedo californica) (UniProt P02710); test: Increase in [3H]PCP binding to nAChR in Torpedo nobiliana electric organs; details: Electric organ
[2] = biological target: Acetylcholine receptor subunit alpha (Torpedo californica) (UniProt P02710); test: Increase in [3H]PCP binding to nAChR in Torpedo nobiliana electric organs in presence of carbachol; details: Electric organ
[3] = Displacement of [3H]alpha-BGT from nAChR in Apis mellifera (honeybee) head
[4] = Displacement of [3H]nicotine from nAChR in Sprague-Dawley Rattus norvegicus (rat) whole brain homogenates; format: tissue-based
[5] = biological target: Acetylcholine receptor subunit alpha (Torpedo californica) (UniProt P02710); test: Inhibition of [3H]PCP binding to nAChR in Torpedo nobiliana electric organs in presence of carbachol; details: Electric organ
[6] = biological target: Acetylcholine receptor subunit alpha (Torpedo californica) (UniProt P02710); test: Displacement of [3H]alpha-BGT from nAChR in Torpedo nobiliana electric organs at 300 uM; details: Electric organ
Rattus norvegicus = species on record: Rattus norvegicus; test: Displacement of [3H]nicotine from nAChR in Sprague-Dawley Rattus norvegicus (rat) whole brain homogenates at 1000 uM; format: tissue-based
Apis mellifera = test: Displacement of [3H]alpha-BGT from nAChR in Apis mellifera (honeybee) head at 1000 uM
[7] = biological target: Acetylcholine receptor subunit alpha (Torpedo californica) (UniProt P02710); test: Displacement of [3H]alpha-BGT from nAChR in Torpedo nobiliana electric organs at 1000 uM; details: Electric organ

Sequence of Acetylcholine receptor subunit alpha (Torpedo californica) (P02710 whole entry): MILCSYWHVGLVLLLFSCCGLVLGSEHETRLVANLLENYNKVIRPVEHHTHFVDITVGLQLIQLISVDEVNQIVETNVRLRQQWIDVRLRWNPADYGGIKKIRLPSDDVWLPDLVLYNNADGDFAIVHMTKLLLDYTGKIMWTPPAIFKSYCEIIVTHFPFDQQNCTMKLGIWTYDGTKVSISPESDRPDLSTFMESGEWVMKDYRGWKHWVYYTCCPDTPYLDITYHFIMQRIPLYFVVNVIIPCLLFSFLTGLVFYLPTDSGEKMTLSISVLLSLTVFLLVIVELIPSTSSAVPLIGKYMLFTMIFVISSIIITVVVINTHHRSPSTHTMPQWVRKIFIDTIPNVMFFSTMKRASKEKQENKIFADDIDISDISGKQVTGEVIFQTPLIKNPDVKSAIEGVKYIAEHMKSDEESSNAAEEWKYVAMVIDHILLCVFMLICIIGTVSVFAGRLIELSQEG

Structure (SMILES): CN(C)Cc1ccccn1
- Activity [1]: Active
- Activity [2]: inactive

Structure (SMILES): C[N+](C)(C)C [TRETRAMETHYLAMMONIUM IODIDE]
- Activity [1]: Active
- Activity [2]: inactive
- IC50 [3]: 542 µM

Structure (SMILES): O=[N+]([O-])/N=C1\NCCN1Cc1ccc(Cl)nc1 [IMIDACLOPRID]
- Activity [1]: 300%
- IC50 [4]: 0.984 µM
- Activity [2]: inactive
- IC50 [3]: 1.95 µM
- inhibition [5]: inactive

Structure (SMILES): O=[N+]([O-])C=C1NCCCS1
- IC50 [4]: 109 µM
- IC50 [3]: 1360 µM

Structure (SMILES): C/C(=N\C#N)N(C)Cc1ccc(Cl)nc1 [ACETAMIPRID]
- IC50 [3]: 8.83 µM
- inhibition [6]: 12.6%

Structure (SMILES): C[N+](C)(C)CCOC(N)=O [CARBACHOL]
- IC50 [4]: 0.647 µM
- IC50 [3]: 90.2 µM

Structure (SMILES): c1cncc([C@@H]2CCCCN2)c1 [ANABASINE]
- IC50 [4]: 0.285 µM
- IC50 [3]: 1.98 µM

Structure (SMILES): CCN(Cc1ccc(Cl)nc1)/C(=C/[N+](=O)[O-])NC [NITENPYRAM]
- IC50 [3]: 61.3 µM

Structure (SMILES): CN1CCC[C@H]1c1cccnc1 [NICOTINE]
- Activity [1]: Active
- IC50 [4]: 0.0096 µM
- Activity [2]: inactive
- IC50 [3]: 1.25 µM

Structure (SMILES): CN(C)Cc1cccnc1
- Activity [1]: Active
- Activity [2]: inactive

Structure (SMILES): Cn1cccc1-c1cccnc1 [NICOTYRINE]
- IC50 [4]: > 1000 µM
- inhibition (Rattus norvegicus): 15.6%
- inhibition (Apis mellifera): 1.5%
- IC50 [3]: > 1000 µM
- inhibition [7]: 2.55%

Structure (SMILES): CN(C)Cc1ccncc1
- Activity [1]: Active
- Activity [2]: inactive
